In ChEMBL document CHEMBL4002645, “Discovery of Potent, Selective, and Structurally Novel Dot1L Inhibitors by a Fragment Linking Approach” (ACS Med Chem Lett, 2017):

Tests used:
[1] = molecular target: T1, Histone-lysine N-methyltransferase, H3 lysine-79 specific (Homo sapiens, UniProt Q8TEK3); experiment: Inhibition of DOT1L (2 to 416 residues) (unknown origin) using biotinylated nucleosomes as substrate preincubated for 30 mins followed by substrate addition in presence of [3H-Me]SAM by scintillation proximity assay
Target sequence in this assay (Q8TEK3 whole entry, the tested form may be a part): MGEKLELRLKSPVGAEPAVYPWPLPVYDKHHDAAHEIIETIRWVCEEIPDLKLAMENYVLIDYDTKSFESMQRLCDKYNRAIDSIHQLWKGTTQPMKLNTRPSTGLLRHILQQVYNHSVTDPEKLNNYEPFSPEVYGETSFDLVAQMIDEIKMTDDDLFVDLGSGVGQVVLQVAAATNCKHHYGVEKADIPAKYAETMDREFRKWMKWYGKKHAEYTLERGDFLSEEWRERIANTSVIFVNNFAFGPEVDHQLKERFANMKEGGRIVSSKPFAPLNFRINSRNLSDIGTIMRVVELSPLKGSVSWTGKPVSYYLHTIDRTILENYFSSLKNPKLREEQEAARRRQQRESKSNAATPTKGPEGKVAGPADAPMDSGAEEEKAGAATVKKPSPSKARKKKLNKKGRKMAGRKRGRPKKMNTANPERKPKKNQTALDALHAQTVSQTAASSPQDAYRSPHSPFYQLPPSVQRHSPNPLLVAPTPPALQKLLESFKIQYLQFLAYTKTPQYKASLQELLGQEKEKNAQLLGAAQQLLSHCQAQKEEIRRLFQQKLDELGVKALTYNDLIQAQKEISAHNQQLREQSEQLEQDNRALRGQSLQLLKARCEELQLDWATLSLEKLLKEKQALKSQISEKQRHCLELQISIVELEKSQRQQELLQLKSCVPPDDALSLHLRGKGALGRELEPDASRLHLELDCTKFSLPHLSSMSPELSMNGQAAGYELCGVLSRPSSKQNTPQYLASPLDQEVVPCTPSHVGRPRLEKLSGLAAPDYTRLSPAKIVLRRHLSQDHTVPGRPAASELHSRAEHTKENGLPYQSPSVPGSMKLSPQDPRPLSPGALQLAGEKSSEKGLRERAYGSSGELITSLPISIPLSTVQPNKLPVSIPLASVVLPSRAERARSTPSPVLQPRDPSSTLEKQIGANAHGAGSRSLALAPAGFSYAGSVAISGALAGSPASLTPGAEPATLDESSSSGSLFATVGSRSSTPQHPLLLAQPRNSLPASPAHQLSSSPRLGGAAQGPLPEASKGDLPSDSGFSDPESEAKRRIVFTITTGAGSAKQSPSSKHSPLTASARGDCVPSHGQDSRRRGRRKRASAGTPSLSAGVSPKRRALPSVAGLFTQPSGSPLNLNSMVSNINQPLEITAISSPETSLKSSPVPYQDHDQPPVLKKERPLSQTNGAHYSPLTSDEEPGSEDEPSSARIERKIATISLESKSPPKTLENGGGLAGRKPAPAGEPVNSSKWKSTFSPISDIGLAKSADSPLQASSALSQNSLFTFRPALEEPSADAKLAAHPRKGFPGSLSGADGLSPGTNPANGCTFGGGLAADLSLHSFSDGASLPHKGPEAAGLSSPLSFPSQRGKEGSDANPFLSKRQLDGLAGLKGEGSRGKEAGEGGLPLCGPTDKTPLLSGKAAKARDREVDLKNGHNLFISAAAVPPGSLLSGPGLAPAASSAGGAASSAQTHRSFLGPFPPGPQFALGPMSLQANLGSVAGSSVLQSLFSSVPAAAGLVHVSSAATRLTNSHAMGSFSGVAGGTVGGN

[2] = molecular target: T1, Histone-lysine N-methyltransferase, H3 lysine-79 specific; experiment: Binding affinity to human Avi-tagged biotinylated DOT1L (2 to 416 residues) assessed as target residence time at 100 nM by surface plasmon resonance assay
Target sequence in this assay (Q8TEK3 whole entry, looked up, the tested form may be a part): as the sequence (Q8TEK3 whole entry, the tested form may be a part) above

[3] = molecular target: T1, Histone-lysine N-methyltransferase, H3 lysine-79 specific; experiment: Inhibition of DOT1L in human MOLM13 cells assessed as suppression of HoxA9 gene after 72 hrs by luciferase reporter gene assay; type: cell-based
Target sequence in this assay (Q8TEK3 whole entry, the tested form may be a part): as above

MV4-11 = experiment: Antiproliferative activity against human MV4-11 cells harboring MLL-AF4 treated for 6 hrs measured after 8 days by Celltiter-Glo reagent based assay; type: functional, cell-based
[4] = molecular target: T1, Histone-lysine N-methyltransferase, H3 lysine-79 specific; experiment: Inhibition of DOT1L in human HeLa cells assessed as reduction in H3K79me2 level after 72 hrs by ELISA; type: cell-based
Target sequence in this assay (Q8TEK3 whole entry, the tested form may be a part): as above

[5] = molecular target: T1, Histone-lysine N-methyltransferase, H3 lysine-79 specific; experiment: Competitive inhibition of DOT1L (2 to 416 residues) (unknown origin) using biotinylated nucleosomes as substrate preincubated for 30 mins followed by substrate addition in presence of [3H-Me]SAM by scintillation proximity assay
Target sequence in this assay (Q8TEK3 whole entry, the tested form may be a part): as above

NC(=O)CNC(=O)Nc1ccc2ccn(-c3ccccc3Cl)c2c1
IC50 ([1]; read-out: pIC50 (converted)): 7940 nM

N[C@@H]1CCCN(c2ncnc3[nH]ccc23)C1
IC50 ([1]; read-out: IC50): 240000 nM

O=C(CNC(=O)Nc1ccc2ccn(-c3ccccc3Cl)c2c1)NCCCCN[C@@H]1CCCN(c2ncnc3[nH]ccc23)C1
IC50 ([1]; read-out: IC50): 4 nM

Cc1ncccc1-c1c(Cl)sc2ccc(NC(=O)NCC(=O)NCCCN(C)[C@@H]3CCCN(c4ncnc5[nH]ccc45)C3)cc12
TIME [2]: > 5 h
IC50 [3]: 17 nM
IC50 (MV4-11): 5 nM
IC50 [4]: 3 nM
Ki [5]: 0.002 nM
IC50 ([1]; read-out: IC50): < 0.1 nM

O=C(CNC(=O)Nc1ccc2ccn(-c3ccccc3Cl)c2c1)NCCCN[C@@H]1CCCN(c2ncnc3[nH]ccc23)C1
IC50 ([1]; read-out: IC50): 4 nM

CN(CCCNC(=O)CNC(=O)Nc1ccc2ccn(-c3ccccc3Cl)c2c1)[C@@H]1CCCN(c2ncnc3[nH]ccc23)C1
IC50 ([1]; read-out: IC50): 0.15 nM

Nc1ncnc2c1ncn2[C@@H]1O[C@H](CO)[C@@H](O)[C@H]1O [ADENOSINE]
IC50 ([1]; read-out: IC50): 100000 nM

CN[C@@H]1CCCN(c2ncnc3[nH]ccc23)C1
IC50 ([1]; read-out: IC50): 141000 nM

CC(C)N(C[C@H]1O[C@@H](n2cnc3c(N)ncnc32)[C@H](O)[C@@H]1O)[C@H]1C[C@@H](CCc2nc3cc(C(C)(C)C)ccc3[nH]2)C1 [PINOMETOSTAT]
TIME [2]: > 5 h
IC50 (MV4-11): 15 nM
